# Data as given in patent US20200399238A1, “THERAPEUTIC AURONES” (MIDDLE TENNESSEE STATE UNIVERSITY, priority 2016, published 2020).
# Like-named read-outs stand apart in the source and are kept apart here.
# Key:
# [1] = tested on: Leishmania amazonensis promastigotes expressing beta-lactamase; assay: microbe, parasite or virus in culture; type: cell-based; conditions: for IC50: Leishmania amazonensis
# [2] = tested on: Trypanosoma cruzi Tulahuen cells expressing beta-galactosidase; assay: T. cruzi intracellular assay (beta-galactosidase, L6 host cells); conditions: for IC50: Trypanosoma cruzi, TULAHUEN; for Selectivity L6/TC-I: Table 3A
# Method: Trypanosoma cruzi Tulahuen cells expressing beta-galactosidase (Buckner et al., Antimicrob. Agents Chemother. 40 (1996) 2592-2597) were cultured using the L6 cell line as a host cell. Adherent L6 cultures were infected with freshly burst T. cruzi trypomastigotes. Approximately 4-6 days later freshly burst trypomastigotes were collected and used to maintain cultures For assays, trypomastigotes were centrifuged to a loose pellet and incubated for 3 hours to allow the trypomastigote forms to swim out of the pellet. Cells were adjusted for addition to intracellular or extracellular assays. […] For intracellular assays, cells were added to adherent L6 cells using an infection ratio of 1:1 and immediately treated with compounds. At 96 hours incubations, a solution containing chlorophenol-red-B-D-beta-galactopyranosidase (Sigma) and a lysis agent were added. After an additional 2 hour incubation, a spectrophotometer was used to quantify the resulting color change (or lack thereof) which was used to calculate inhibition.
# The percentage of cell inhibition was calculated using the formula: Percent Inhibition=1−((Treated Sample value−Medium only value)/(Untreated value−Medium only value))×100. Results are expressed as the mean of two or more independent trials.
# [3] = tested on: rat skeletal muscle cell line, L6; assay: cells; type: cell-based
# [4] = tested on: Trypanosoma brucei brucei 427 cells; assay: T. brucei culture and assay (PrestoBlue); type: cell-based
# [5] = read-out: IC50 T. cruzi, Table 1, intracellular assay, mean of 2(+) trials (^c one trial)
# [6] = read-out: IC50 T. cruzi, Table 2, intracellular assay, mean of 2(+) independent trials
# [7] = read-out: IC50 TC-I, Table 3B, weighted means of two or more independent trials
# [8] = Rattus norvegicus, Table 1, read-out: IC50 Toxicity (L6)
# [9] = Rattus norvegicus, Table 3B, weighted means of two or more independent trials, read-out: IC50 L6
# [10] = Trypanosoma brucei, Table 1, mean of 2(+) independent trials, read-out: IC50 T. brucei
# [11] = Table 1, intracellular T. cruzi IC50
# [12] = estimated from highest L6 dose tested where no L6 IC50
# [13] = read-out: IC50 TC-I, Table 3A, weighted means of two or more independent trials
# [14] = Rattus norvegicus, Table 3A, weighted means of two or more independent trials, read-out: IC50 L6
# [15] = Table 2, L6 IC50 / L. amazonensis IC50
# [16] = Table 2, L6 IC50 / T. cruzi IC50 (intracellular assay)
# [17] = Table 3B, estimated from highest L6 dose tested where no L6 IC50
Compound,IC50 ([1]; read-out: IC50 L. amaz.) [µM],melting point [°C],"IC50 [2, 5] [µM]","IC50 [2, 6] [µM]","IC50 [2, 7] [µM]","IC50 [3, 8] [µM]","IC50 [3, 9] [µM]","IC50 [4, 10] [µM]",Selectivity L6/La ([1]; Table 1),"Selectivity L6/Tc [2, 11]","IC50 [2, 13] [µM]","IC50 [3, 14] [µM]",other results
O=C1/C(=C/c2sccc2Br)Oc2ccccc21 [Aurone 9060],1.36,176 to 180,34.6,34.6,34.6,> 100,> 100,> 50,,,,,
"O=C1/C(=C/c2cccc(Cl)c2)Oc2ccccc21 [Aurone 9026, (Z)-2-(3-chlorobenzylidene)benzofuran-3(2H)-one]",12.6,86 to 89,11,,,77.5,,27.4,6.15,7.07,11,77.5,"Selectivity L6/TC-I [2, 12]: 7.07; Selectivity L6/Tb ([4]; Table 1): 2.83; Selectivity L6/Tb ([4]; Table 3A, estimated from highest L6 dose tested where no L6 IC50): 2.83"
"Cc1ccccc1/C=C1\Oc2ccccc2C1=O [Aurone 9057, (Z)-2-(2-methylbenzylidene)benzofuran-3(2H)-one]",< 1,89 to 93,26.3,26.3,,99.6,,24.4,,,,,
"Cc1ccc(/C=C2\Oc3ccc(Br)cc3C2=O)cc1 [Aurone 6000, (Z)-5-bromo-2-(4-methylbenzylidene)benzofuran-3(2H)-one]",8.43,115 to 120,> 50,> 50,,> 100,,> 50,,,,,
"O=C1/C(=C/c2cccc3[nH]ccc23)Oc2ccccc21 [Aurone 9063, (Z)-2-((1H-indol-4-yl)methylene)benzofuran-3(2H)-one]",1.13,230 to 238,18.9,18.9,18.9,94,94,> 50,,,,,
"O=C1/C(=C/c2ccsc2)Oc2ccccc21 [Aurone 3004, (Z)-2-(thiophen-3-ylmethylene)benzofuran-3(2H)-one]",24.2,125 to 126,9.02,9.02,9.02,> 100,> 100,38.7,>4.13,>11.09,,,"Selectivity L6/La [1, 15]: >4.13; Selectivity L6/Tc [2, 16]: >11.09; Selectivity L6/Tc-I [2, 17]: >11.09; IC50 ([2]; read-out: T. cruzi IC50 dose): 9.02 µM; IC50 ([3]; Table 2, L6 mammalian cells, read-out: IC50 Toxicity (L6)): > 100 µM; activity against T. brucei [4]: moderate activity; Selectivity L6/Tb ([4]; Table 1): >2.58; Selectivity L6/Tb ([4]; Table 2, L6 IC50 / T. brucei IC50): >2.58; Selectivity L6/Tb [4, 17]: >2.58"
"COC(=O)c1ccc(/C=C2\Oc3ccccc3C2=O)cc1 [Aurone 9047, Methyl (Z)-4-((3-oxobenzofuran-2(3H)-ylidene)methyl)benzoate]",24.2,144 to 147,> 50,,,> 100,,> 50,>4.13,,> 50,> 100,
"O=C1/C(=C/c2ccccc2F)Oc2ccccc21 [Aurone 9004, (Z)-2-(2-fluorobenzylidene)benzofuran-3(2H)-one]",10.5,76 to 81,22,22,,176,,> 50,16.83,8.00,22,176,"IC50 ([1]; read-out: IC50 L. amaz. (footnote c: value obtained from one trial)): 10.5 µM; Selectivity L6/La [1, 15]: 16.83; Selectivity L6/Tc [2, 16]: 8.00; Selectivity L6/TC-I [2, 12]: 8.00; IC50 ([4]; Table 2, mean of 2(+) independent trials, read-out: IC50 T. brucei): > 50 µM"
"O=C1/C(=C/c2cccnc2)Oc2ccccc21 [Aurone 9253, (Z)-2-(pyridin-3-ylmethylene)benzofuran-3(2H)-one]",7.38,122 to 123,17.8,17.8,17.8,< 100,> 100,> 50,,,,,"IC50 ([4]; Trypanosoma brucei, read-out: IC50 TB): > 50 µM"
